These are literature values, as cited in patent US20120295320A1, “APPARATUS AND METHOD FOR TREATMENT OF MICROORGANISMS DURING PROPAGATION, CONDITIONING AND FERMENTATION USING STABILIZED CHLORINE DIOXIDE/SODIUM CHLORITE WITH HOPS ACID EXTRACTS” (RESONANT BIOSCIENCES, LLC, priority 2010, published 2012).

The test system of this series is Weisella confusa. The conditions noted are these: background statement, fermentation mixture.

As to Virginiamycin, the “concentration required to inhibit growth of Weisella confusa” value is “over 25 mg/L”.
